Reference: ChEMBL document CHEMBL5096169, “Recent progress in agents targeting polo-like kinases: Promising therapeutic strategies” (Eur J Med Chem, 2021)
Where “and” joins values, the source holds several entries; their conditions need not be identical. Identical values can stand only once.

Key:
MOLM-13 = experiment: Antiproliferative activity against human MOLM-13 cells assessed as inhibition of cell proliferation incubated for 24 hrs by CCK-8 assay; assay type: functional, cell-based; conditions: MOLM-13, 24 h
KG-1 = experiment: Antiproliferative activity against human KG-1 cells assessed as inhibition of cell proliferation incubated for 24 hrs by CCK-8 assay; assay type: functional, cell-based; conditions: KG-1, 24 h
[1] = target: T1, Serine/threonine-protein kinase PLK1 (Homo sapiens, UniProt P53350); experiment: Inhibition of human PLK1-PBD (326 to 603 residues) expressed in Escherichia coli BL21(DE3) rosetta cells using 5-carboxyfluorescein-GPMQSpTPLNG-OH as substrate preincubated for 1 hr followed by substrate addition and measured after 1 to 2 hr by fluorescence polarization assay
T1 sequence (P53350 whole entry, the tested form may be a part): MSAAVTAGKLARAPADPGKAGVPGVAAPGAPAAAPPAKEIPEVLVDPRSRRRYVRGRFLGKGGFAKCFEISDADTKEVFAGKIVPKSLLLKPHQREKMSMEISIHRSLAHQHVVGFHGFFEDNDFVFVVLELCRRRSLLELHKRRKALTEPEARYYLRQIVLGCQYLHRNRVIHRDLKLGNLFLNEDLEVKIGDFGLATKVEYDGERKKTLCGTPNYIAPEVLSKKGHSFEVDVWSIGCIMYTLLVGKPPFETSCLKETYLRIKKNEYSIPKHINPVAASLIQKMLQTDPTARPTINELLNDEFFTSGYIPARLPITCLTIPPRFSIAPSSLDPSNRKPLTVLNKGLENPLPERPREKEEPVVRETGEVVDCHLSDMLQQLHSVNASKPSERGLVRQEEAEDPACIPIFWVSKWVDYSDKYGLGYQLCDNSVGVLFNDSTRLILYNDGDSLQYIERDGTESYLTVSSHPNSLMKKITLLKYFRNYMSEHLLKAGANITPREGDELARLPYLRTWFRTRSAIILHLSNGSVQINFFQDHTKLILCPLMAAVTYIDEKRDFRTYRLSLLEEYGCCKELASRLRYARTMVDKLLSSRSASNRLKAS

[2] = target: T1, Serine/threonine-protein kinase PLK1; experiment: Binding affinity to human PLK1-PBD (326 to 603 residues) expressed in Escherichia coli BL21(DE3) rosetta cells by microscale thermophoresis analysis
[3] = target: T1, Serine/threonine-protein kinase PLK1; experiment: Inhibition of PLK1 (unknown origin)
[4] = target: Serine/threonine-protein kinase PLK2 (Homo sapiens, UniProt Q9NYY3); experiment: Inhibition of recombinant C-terminal 6His-tagged human PLK2-PBD expressed in Escherichia coli BL21(DE3) rosetta cells using 5-carboxyfluorescein-GPMQTSpTPKNG-OH as substrate preincubated for 1 hr followed by substrate addition and measured after 1 hr by fluorescence polarization assay
Chain of Serine/threonine-protein kinase PLK2 (Q9NYY3 whole entry): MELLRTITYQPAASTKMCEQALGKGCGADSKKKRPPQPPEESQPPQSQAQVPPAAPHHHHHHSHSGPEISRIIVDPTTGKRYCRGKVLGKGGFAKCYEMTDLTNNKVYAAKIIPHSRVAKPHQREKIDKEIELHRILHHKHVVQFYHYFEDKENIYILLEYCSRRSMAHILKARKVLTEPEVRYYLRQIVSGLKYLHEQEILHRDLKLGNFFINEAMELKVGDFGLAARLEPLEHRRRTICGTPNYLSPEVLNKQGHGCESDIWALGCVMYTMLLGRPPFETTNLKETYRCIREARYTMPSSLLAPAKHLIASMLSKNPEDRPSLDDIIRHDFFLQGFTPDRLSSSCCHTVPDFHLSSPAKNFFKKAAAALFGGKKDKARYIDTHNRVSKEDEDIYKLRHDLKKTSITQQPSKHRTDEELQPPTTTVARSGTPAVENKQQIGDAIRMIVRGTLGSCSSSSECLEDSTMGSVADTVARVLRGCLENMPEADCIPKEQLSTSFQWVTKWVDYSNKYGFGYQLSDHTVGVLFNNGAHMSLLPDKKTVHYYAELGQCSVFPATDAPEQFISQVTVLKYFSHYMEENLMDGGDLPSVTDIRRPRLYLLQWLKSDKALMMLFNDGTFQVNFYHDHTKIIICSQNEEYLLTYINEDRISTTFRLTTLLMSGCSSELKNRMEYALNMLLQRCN

[5] = target: Serine/threonine-protein kinase PLK3 (Homo sapiens, UniProt Q9H4B4); experiment: Inhibition of recombinant N-terminal MBP-tagged human PLK3-PBD expressed in Escherichia coli BL21(DE3) rosetta cells using 5-carboxyfluorescein-GPLATSpTPKNG-NH2 as substrate preincubated for 1 hr followed by substrate addition and measured after 1 hr by fluorescence polarization assay
Chain of Serine/threonine-protein kinase PLK3 (Q9H4B4 whole entry): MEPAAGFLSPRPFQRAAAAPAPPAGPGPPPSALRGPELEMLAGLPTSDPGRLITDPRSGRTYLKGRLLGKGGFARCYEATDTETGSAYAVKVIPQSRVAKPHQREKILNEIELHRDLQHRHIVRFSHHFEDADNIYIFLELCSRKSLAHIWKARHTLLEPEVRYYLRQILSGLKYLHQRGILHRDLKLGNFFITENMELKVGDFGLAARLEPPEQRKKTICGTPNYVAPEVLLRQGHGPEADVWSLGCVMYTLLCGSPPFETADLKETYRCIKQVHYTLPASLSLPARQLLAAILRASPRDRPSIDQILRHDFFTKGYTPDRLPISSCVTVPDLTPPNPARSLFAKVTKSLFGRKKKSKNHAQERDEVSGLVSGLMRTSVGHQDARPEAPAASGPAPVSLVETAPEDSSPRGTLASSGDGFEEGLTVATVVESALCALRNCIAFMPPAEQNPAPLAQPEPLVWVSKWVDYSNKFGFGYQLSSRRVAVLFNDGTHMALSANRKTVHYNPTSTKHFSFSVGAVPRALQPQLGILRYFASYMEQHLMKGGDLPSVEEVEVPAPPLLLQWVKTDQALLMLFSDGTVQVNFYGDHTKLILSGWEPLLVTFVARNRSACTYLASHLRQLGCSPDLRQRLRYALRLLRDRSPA

CCRF-CEM = experiment: Cytotoxicity against human CCRF-CEM cells assessed as reduction in cell viability incubated for 72 hrs by resazurin microplate assay; assay type: functional, cell-based
[6] = target: T1, Serine/threonine-protein kinase PLK1; experiment: Inhibition of human PLK1-PBD expressed in Escherichia coli BL21(DE3) rosetta cells using 5-carboxyfluorescein-GPMQSpTPLNG-OH as substrate preincubated for 1 hr followed by substrate addition and measured after 1 hr by fluorescence polarization assay
ADR5000 cell line = experiment: Cytotoxicity against human CEM/ADR5000 cells assessed as reduction in cell viability incubated for 72 hrs by resazurin microplate assay; assay type: functional, cell-based; conditions: ADR5000, 72 h
[7] = target: T1, Serine/threonine-protein kinase PLK1; experiment: Inhibition of PLK1-PBD (unknown origin) using FITC-GPMQSpTPLNG-OH as substrate measured after 30 mins by Fluorescence polarization assay

In the case of `CC[C@@H]1C(=O)N(C)c2cnc(Nc3ccc(C(=O)NCCOCCOCCOCCNc4cccc5c4C(=O)N(C4CCC(=O)NC4=O)C5=O)cc3OC)nc2N1C1CCCC1` (stereo partly specified), the IC50 (MOLM-13) is reported as 0.00621 µM and the IC50 (KG-1) is reported as 0.00694 µM.
`CCOC(=O)c1oc2ccccc2c1CBr` gave an IC50 [1] of 16.4 µM and a Kd [2] of 12.8 µM.
In the case of `COc1cc2ncn(-c3cc(-c4cccc(C(F)(F)F)c4)c(C(N)=O)s3)c2cc1OC`, the IC50 [3] is reported as 0.0022 µM.
In the case of `C[C@@]12CN(Cc3cccc(C#N)c3)C[C@@](C)(C1)c1c(-c3ccc4ccccc4c3)ccc(=O)n1C2`, the IC50 [4] is reported as 95.5 µM, the IC50 [5] is reported as > 100 µM and the IC50 (CCRF-CEM) is reported as 11.4 µM. For the same compound, the IC50 [6] was 17.9 µM and 95.5 µM and the IC50 (ADR5000 cell line) was 13.5 µM.
In the case of `CC(CC(=O)N[C@H](C(=O)N[C@@H](CO)C(=O)N[C@H](C(N)=O)[C@@H](C)OP(=O)(O)O)c1cncs1)NC(=O)c1ccc(CO)cc1` (single isomer, unassigned), the IC50 [7] is reported as 0.267 µM.
